From ChEMBL document CHEMBL3734705, “Synthesis and in vitro cytotoxicity of novel C-12 substituted-14-deoxy-andrographolide derivatives as potent anti-cancer agents” (2015)
Active and inactive are the calls of the source. No cut-off for these calls is given here.

Columns and labels:
[1] = Cytotoxicity against human MOLT4 cells assessed as growth level at 10 uM after 48 hrs by SRB assay; format: functional, MOLT-4
A549 = test: Cytotoxicity against human A549 cells assessed as growth level at 10 uM after 48 hrs by SRB assay; format: functional
EKVX = test: Cytotoxicity against human EKVX cells assessed as growth level at 10 uM after 48 hrs by SRB assay; format: functional
NCI-H226 [2] = test: Cytotoxicity against human NCI-H226 cells assessed as growth level at 10 uM after 48 hrs by SRB assay; format: functional
NCI-H322M [3] = test: Cytotoxicity against human NCI-H322M cells assessed as growth level at 10 uM after 48 hrs by SRB assay; format: functional
NCI-H460 [4] = test: Cytotoxicity against human NCI-H460 cells assessed as growth level at 10 uM after 48 hrs by SRB assay; format: functional
[5] = Cytotoxicity against human HCT15 cells assessed as growth level at 10 uM after 48 hrs by SRB assay; format: functional, HCT-15
KM12 = test: Cytotoxicity against human KM12 cells assessed as growth level at 10 uM after 48 hrs by SRB assay; format: functional
[6] = Cytotoxicity against human SF539 cells assessed as growth level at 10 uM after 48 hrs by SRB assay; format: functional, SF-539
Malme-3M = test: Cytotoxicity against human MALME-3M cells assessed as growth level at 10 uM after 48 hrs by SRB assay; format: functional
SK-MEL-28 = test: Cytotoxicity against human SK-MEL-28 cells assessed as growth level at 10 uM after 48 hrs by SRB assay; format: functional
[7] = Cytotoxicity against human UACC62 cells assessed as growth level at 10 uM after 48 hrs by SRB assay; format: functional, UACC-62
[8] = Cytotoxicity against human OVCAR5 cells assessed as growth level at 10 uM after 48 hrs by SRB assay; format: functional, OVCAR-5
[9] = Cytotoxicity against human SKOV3 cells assessed as growth level at 10 uM after 48 hrs by SRB assay; format: functional, SK-OV-3
[10] = Cytotoxicity against human RXF393 cells assessed as growth level at 10 uM after 48 hrs by SRB assay; format: functional, RXF 393
SN12C [11] = test: Cytotoxicity against human SN12C cells assessed as growth level at 10 uM after 48 hrs by SRB assay; format: functional
[12] = Cytotoxicity against human TK10 cells assessed as growth level at 10 uM after 48 hrs by SRB assay; format: functional, TK-10
[13] = Cytotoxicity against human UO31 cells assessed as growth level at 10 uM after 48 hrs by SRB assay; format: functional, UO-31
MCF7 = test: Cytotoxicity against human MCF7 cells assessed as growth level at 10 uM after 48 hrs by SRB assay; format: functional
MDA-MB-231 = test: Cytotoxicity against human MDA-MB-231 cells assessed as growth level at 10 uM after 48 hrs by SRB assay; format: functional
[14] = Cytotoxicity against human BT549 cells assessed as growth level at 10 uM after 48 hrs by SRB assay; format: functional, BT-549
T47D = test: Cytotoxicity against human T47D cells assessed as growth level at 10 uM after 48 hrs by SRB assay; format: functional
MDA-MB-468 [15] = test: Cytotoxicity against human MDA-MB-468 cells assessed as growth level at 10 uM after 48 hrs by SRB assay; format: functional
CCRF-CEM [16] = test: Cytotoxicity against human CCRF-CEM cells assessed as growth inhibition at 10 uM after 48 hrs by SRB assay; format: functional; conditions: read-out: GI
[17] = Cytotoxicity against human RPMI8226 cells assessed as growth inhibition at 10 uM after 48 hrs by SRB assay; format: functional; conditions: RPMI-8226, 48 h, read-out: GI
SR = test: Cytotoxicity against human SR cells assessed as growth inhibition at 10 uM after 48 hrs by SRB assay; format: functional; conditions: read-out: GI
[18] = Cytotoxicity against human HOP62 cells assessed as growth inhibition at 10 uM after 48 hrs by SRB assay; format: functional; conditions: HOP-62, 48 h, read-out: GI
[19] = Cytotoxicity against human HOP92 cells assessed as growth inhibition at 10 uM after 48 hrs by SRB assay; format: functional; conditions: HOP-92, 48 h, read-out: GI
NCI-H226 [20] = test: Cytotoxicity against human NCI-H226 cells assessed as growth inhibition at 10 uM after 48 hrs by SRB assay; format: functional; conditions: NCI-H226, 48 h, read-out: GI
NCI-H322M [21] = test: Cytotoxicity against human NCI-H322M cells assessed as growth inhibition at 10 uM after 48 hrs by SRB assay; format: functional
NCI-H460 [22] = test: Cytotoxicity against human NCI-H460 cells assessed as growth inhibition at 10 uM after 48 hrs by SRB assay; format: functional; conditions: NCI-H460, 48 h, read-out: GI
NCI-H522 = test: Cytotoxicity against human NCI-H522 cells assessed as growth inhibition at 10 uM after 48 hrs by SRB assay; format: functional; conditions: NCI-H522, 48 h, read-out: GI
[23] = Cytotoxicity against human HCT15 cells assessed as growth inhibition at 10 uM after 48 hrs by SRB assay; format: functional; conditions: HCT-15, 48 h, read-out: GI
[24] = Cytotoxicity against human SF539 cells assessed as growth inhibition at 10 uM after 48 hrs by SRB assay; format: functional; conditions: SF-539, 48 h, read-out: GI
[25] = Cytotoxicity against human SNB75 cells assessed as growth inhibition at 10 uM after 48 hrs by SRB assay; format: functional; conditions: SNB-75, 48 h, read-out: GI
[26] = Cytotoxicity against human UACC257 cells assessed as growth inhibition at 10 uM after 48 hrs by SRB assay; format: functional; conditions: UACC-257, 48 h, read-out: GI
[27] = Cytotoxicity against human IGROV1 cells assessed as growth inhibition at 10 uM after 48 hrs by SRB assay; format: functional; conditions: IGROV-1, 48 h, read-out: GI
[28] = Cytotoxicity against human OVCAR8 cells assessed as growth inhibition at 10 uM after 48 hrs by SRB assay; format: functional; conditions: OVCAR-8, 48 h, read-out: GI
[29] = Cytotoxicity against human NCI-ADR-RES cells assessed as growth inhibition at 10 uM after 48 hrs by SRB assay; format: functional; conditions: read-out: GI
A498 = test: Cytotoxicity against human A498 cells assessed as growth inhibition at 10 uM after 48 hrs by SRB assay; format: functional; conditions: A498, 48 h, read-out: GI
ACHN = test: Cytotoxicity against human ACHN cells assessed as growth inhibition at 10 uM after 48 hrs by SRB assay; format: functional; conditions: read-out: GI
SN12C [30] = test: Cytotoxicity against human SN12C cells assessed as growth inhibition at 10 uM after 48 hrs by SRB assay; format: functional; conditions: read-out: GI
MDA-MB-468 [31] = test: Cytotoxicity against human MDA-MB-468 cells assessed as growth inhibition at 10 uM after 48 hrs by SRB assay; format: functional; conditions: MDA-MB-468, 48 h, read-out: GI
CCRF-CEM [32] = test: Cytotoxicity against human CCRF-CEM cells assessed as growth level at 10 uM after 48 hrs by SRB assay; format: functional
[33] = Cytotoxicity against human HL-60(TB) cells assessed as growth level at 10 uM after 48 hrs by SRB assay; format: functional

**Q.** With `C=C1CC[C@@H]2[C@](C)(COC(C)=O)[C@H](OC(C)=O)CC[C@@]2(C)[C@@H]1CC(NC1CCCC1)C1=CCOC1=O` (stereo not given in full) as the compound, how does the Activity [1] read?
**A.** 42.41%

**Q.** What about the Activity (A549) of the same compound?
**A.** 73.55%

**Q.** What about the Activity (EKVX) of the same compound?
**A.** 52.44%

**Q.** And the Activity (NCI-H226 [2])?
**A.** 84.46%

**Q.** What about the Activity (NCI-H322M [3]) of the same compound?
**A.** 101.16%

**Q.** And the Activity (NCI-H460 [4])?
**A.** 74.77%

**Q.** What about the Activity [5] of the same compound?
**A.** 67.03%

**Q.** What about the Activity (KM12) of the same compound?
**A.** 74.46%

**Q.** And the Activity [6]?
**A.** 89.44%

**Q.** What about the Activity (Malme-3M) of the same compound?
**A.** 84.55%

**Q.** What about the Activity (SK-MEL-28) of the same compound?
**A.** 91.05%

**Q.** What about the Activity [7] of the same compound?
**A.** 65.59%

**Q.** And the Activity [8]?
**A.** 105.62%

**Q.** What about the Activity [9] of the same compound?
**A.** 87.88%

**Q.** And the Activity [10]?
**A.** 78.03%

**Q.** And the Activity (SN12C [11])?
**A.** 78.46%

**Q.** What about the Activity [12] of the same compound?
**A.** 87.06%

**Q.** What about the Activity [13] of the same compound?
**A.** 56.08%

**Q.** And the Activity (MCF7)?
**A.** 72.42%

**Q.** What about the Activity (MDA-MB-231) of the same compound?
**A.** 80.39%

**Q.** And the Activity [14]?
**A.** 55.62%

**Q.** What about the Activity (T47D) of the same compound?
**A.** 50.85%

**Q.** And the Activity (MDA-MB-468 [15])?
**A.** 34.72%

**Q.** What about the inhibition of growth at 10 µM (CCRF-CEM [16]) of the same compound?
**A.** 36.5%

**Q.** And the inhibition of growth at 10 µM [17]?
**A.** 62.5%

**Q.** What about the inhibition of growth at 10 µM (SR) of the same compound?
**A.** 80.4%

**Q.** What about the inhibition of growth at 10 µM [18] of the same compound?
**A.** 5.59%

**Q.** What about the inhibition of growth at 10 µM [19] of the same compound?
**A.** 74.8%

**Q.** And the inhibition of growth at 10 µM (NCI-H226 [20])?
**A.** 15.5%

**Q.** What about the “growth inhibition (GI)” value (NCI-H322M [21]) of the same compound?
**A.** inactive

**Q.** What about the inhibition of growth at 10 µM (NCI-H460 [22]) of the same compound?
**A.** 25.2%

**Q.** And the inhibition of growth at 10 µM (NCI-H522)?
**A.** 54.4%

**Q.** What about the inhibition of growth at 10 µM [23] of the same compound?
**A.** 33%

**Q.** What about the inhibition of growth at 10 µM [24] of the same compound?
**A.** 10.6%

**Q.** And the inhibition of growth at 10 µM [25]?
**A.** 32%

**Q.** And the inhibition of growth at 10 µM [26]?
**A.** 61.6%

**Q.** And the inhibition of growth at 10 µM [27]?
**A.** 11.8%

**Q.** What about the inhibition of growth at 10 µM [28] of the same compound?
**A.** 46.3%

**Q.** What about the inhibition of growth at 10 µM [29] of the same compound?
**A.** 31.5%

**Q.** And the inhibition of growth at 10 µM (A498)?
**A.** 32%

**Q.** And the inhibition of growth at 10 µM (ACHN)?
**A.** 21.5%

**Q.** And the inhibition of growth at 10 µM (SN12C [30])?
**A.** 21.5%

**Q.** And the inhibition of growth at 10 µM (MDA-MB-468 [31])?
**A.** 65.3%

**Q.** What about the Activity (CCRF-CEM [32]) of the same compound?
**A.** 63.47%

**Q.** And the Activity [33]?
**A.** 42.67%
